Test results published in article PMC7886321, “Deciphering the LRRK code: LRRK1 and LRRK2 phosphorylate distinct Rab proteins and are regulated by diverse mechanisms” (Biochemical Journal, 2021).
pIC50: −log10 of the molar value.

Tests used:
[1] = molecular target: T1, LRRK2 (Homo sapiens, UniProt Q5S007); experiment: HEK293 overexpression, pRab10 Thr73 and pSer935 LRRK2 immunoblot; type: cell-based
T1 construct: wild type LRRK2 overexpressed in HEK293 cells

[2] = molecular target: T2, LRRK1 (Homo sapiens, UniProt Q38SD2); experiment: in vitro kinase assay, Rab7A Ser72 phosphorylation by immunoblot, […] ATP; type: biochemical
T2 construct: recombinant LRRK1, residues 28 to 2015
T2 sequence (Q38SD2 28-2015): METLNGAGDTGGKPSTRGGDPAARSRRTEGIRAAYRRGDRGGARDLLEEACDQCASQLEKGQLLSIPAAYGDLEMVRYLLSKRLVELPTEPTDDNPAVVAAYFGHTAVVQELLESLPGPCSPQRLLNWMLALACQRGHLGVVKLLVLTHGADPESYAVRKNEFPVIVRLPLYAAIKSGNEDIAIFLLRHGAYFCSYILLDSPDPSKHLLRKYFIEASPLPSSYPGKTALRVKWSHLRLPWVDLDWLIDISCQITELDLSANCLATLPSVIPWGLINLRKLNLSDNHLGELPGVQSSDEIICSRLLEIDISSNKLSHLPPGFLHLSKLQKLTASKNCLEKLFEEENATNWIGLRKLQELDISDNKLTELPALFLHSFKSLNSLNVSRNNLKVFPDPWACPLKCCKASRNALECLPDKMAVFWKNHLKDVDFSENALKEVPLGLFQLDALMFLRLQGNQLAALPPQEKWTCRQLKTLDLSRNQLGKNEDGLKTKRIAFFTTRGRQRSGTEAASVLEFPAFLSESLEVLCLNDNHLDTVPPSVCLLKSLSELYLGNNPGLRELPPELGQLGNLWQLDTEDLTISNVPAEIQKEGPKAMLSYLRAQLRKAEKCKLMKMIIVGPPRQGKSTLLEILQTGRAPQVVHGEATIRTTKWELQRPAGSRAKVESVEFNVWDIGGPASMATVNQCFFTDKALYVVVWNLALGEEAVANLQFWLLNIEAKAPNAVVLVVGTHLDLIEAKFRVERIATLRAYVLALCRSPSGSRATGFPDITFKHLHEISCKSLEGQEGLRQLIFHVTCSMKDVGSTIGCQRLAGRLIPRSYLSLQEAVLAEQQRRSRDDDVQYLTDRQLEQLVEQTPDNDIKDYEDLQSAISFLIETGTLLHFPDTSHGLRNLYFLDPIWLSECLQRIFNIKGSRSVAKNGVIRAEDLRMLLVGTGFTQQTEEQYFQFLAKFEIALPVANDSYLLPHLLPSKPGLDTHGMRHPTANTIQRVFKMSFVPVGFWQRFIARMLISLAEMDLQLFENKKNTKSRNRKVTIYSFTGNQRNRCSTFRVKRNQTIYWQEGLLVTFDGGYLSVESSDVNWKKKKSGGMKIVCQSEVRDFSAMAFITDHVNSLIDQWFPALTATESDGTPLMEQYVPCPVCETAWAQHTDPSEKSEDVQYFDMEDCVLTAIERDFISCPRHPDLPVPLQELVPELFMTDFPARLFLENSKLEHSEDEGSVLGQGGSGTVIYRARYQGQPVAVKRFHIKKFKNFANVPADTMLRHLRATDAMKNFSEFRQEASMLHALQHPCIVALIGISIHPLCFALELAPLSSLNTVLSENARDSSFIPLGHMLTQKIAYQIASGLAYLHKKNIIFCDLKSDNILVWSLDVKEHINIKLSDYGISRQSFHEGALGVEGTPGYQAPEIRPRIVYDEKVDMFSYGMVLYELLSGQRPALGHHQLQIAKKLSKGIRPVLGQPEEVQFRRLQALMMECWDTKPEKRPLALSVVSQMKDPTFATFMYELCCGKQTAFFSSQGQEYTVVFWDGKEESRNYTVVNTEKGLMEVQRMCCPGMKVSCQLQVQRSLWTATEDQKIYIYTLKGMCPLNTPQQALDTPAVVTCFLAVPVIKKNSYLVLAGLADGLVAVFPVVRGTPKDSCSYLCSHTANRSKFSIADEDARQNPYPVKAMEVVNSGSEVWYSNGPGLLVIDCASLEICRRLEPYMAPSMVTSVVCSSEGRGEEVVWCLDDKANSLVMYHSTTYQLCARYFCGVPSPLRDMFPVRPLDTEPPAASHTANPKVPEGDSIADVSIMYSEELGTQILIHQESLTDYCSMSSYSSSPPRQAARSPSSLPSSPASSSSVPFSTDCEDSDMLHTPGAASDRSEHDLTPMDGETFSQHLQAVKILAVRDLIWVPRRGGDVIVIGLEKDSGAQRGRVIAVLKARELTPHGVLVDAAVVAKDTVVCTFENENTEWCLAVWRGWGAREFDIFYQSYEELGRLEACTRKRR

T1 sequence (Q5S007 whole entry): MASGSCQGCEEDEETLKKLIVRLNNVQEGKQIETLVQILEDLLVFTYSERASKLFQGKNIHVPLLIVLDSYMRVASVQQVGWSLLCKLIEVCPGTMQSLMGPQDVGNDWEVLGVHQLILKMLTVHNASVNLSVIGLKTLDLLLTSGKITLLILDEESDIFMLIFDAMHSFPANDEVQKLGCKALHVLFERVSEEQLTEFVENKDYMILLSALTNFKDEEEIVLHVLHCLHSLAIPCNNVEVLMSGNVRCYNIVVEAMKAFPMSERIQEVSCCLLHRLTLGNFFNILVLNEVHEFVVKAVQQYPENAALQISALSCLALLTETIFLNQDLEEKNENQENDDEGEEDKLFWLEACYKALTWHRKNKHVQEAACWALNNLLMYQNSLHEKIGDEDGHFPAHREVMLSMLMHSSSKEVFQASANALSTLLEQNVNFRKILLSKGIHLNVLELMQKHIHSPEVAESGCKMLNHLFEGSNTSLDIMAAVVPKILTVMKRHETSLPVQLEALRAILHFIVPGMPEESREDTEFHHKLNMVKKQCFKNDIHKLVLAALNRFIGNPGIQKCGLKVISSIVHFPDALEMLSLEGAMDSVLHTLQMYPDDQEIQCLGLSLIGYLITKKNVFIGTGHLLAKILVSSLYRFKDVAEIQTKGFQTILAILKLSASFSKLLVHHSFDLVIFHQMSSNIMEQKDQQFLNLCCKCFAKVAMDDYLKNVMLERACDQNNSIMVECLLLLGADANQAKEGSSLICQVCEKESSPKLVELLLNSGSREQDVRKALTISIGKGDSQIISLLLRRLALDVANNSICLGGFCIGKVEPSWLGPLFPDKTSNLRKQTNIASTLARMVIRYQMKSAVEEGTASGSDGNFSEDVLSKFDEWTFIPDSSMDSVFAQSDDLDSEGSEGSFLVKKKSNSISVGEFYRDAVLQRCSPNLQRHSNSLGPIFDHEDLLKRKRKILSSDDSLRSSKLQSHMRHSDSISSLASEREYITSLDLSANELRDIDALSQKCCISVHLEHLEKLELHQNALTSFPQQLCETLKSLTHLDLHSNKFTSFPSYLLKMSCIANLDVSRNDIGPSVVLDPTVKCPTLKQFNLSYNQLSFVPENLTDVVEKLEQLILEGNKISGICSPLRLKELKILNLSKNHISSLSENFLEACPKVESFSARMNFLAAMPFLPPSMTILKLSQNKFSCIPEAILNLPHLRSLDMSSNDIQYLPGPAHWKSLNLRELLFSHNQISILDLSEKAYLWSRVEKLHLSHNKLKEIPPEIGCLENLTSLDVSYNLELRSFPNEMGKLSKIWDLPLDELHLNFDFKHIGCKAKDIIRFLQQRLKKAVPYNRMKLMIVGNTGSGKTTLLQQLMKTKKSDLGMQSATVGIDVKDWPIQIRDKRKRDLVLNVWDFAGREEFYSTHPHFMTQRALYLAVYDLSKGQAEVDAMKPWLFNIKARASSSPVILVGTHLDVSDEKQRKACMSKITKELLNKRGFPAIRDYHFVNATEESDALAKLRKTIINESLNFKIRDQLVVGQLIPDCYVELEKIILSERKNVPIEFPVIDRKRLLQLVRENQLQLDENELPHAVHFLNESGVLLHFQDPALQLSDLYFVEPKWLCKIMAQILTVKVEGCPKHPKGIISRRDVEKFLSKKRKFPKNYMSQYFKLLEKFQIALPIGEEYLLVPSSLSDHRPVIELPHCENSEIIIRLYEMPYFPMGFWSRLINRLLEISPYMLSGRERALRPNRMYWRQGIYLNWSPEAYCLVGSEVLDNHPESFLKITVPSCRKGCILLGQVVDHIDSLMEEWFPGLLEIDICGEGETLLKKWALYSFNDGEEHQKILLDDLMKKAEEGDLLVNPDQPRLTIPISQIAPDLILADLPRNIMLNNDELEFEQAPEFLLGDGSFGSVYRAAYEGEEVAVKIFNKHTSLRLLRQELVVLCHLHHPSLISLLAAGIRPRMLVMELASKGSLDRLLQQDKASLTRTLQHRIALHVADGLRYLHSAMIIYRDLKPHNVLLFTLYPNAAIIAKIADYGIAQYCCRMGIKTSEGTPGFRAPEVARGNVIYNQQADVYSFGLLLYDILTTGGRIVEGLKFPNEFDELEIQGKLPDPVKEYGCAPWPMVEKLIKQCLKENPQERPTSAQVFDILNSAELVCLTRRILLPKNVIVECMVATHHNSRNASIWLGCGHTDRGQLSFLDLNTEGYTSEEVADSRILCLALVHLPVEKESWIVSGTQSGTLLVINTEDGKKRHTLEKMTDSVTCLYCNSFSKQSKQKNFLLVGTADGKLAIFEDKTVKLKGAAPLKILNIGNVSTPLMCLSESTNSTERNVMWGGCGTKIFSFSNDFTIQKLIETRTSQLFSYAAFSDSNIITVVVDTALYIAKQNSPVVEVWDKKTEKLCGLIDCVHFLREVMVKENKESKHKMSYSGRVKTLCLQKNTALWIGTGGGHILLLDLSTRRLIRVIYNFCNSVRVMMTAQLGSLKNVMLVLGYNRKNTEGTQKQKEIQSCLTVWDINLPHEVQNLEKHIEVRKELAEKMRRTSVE

pIC50 [2] | Structure (SMILES) | HEK293 overexpression, pRab10 Thr73 and pSer935 LRRK2 immunoblot [1]
 | O=C(Nc1cccnc1)c1cc(-c2ccnc(F)c2)ccc1OCc1ccccc1 [GSK2578215A] | All inhibitors ablated LRRK2-mediated phosphorylation of Rab10 at Thr73 and LRRK2 at Ser935 in parallel experiments.
~7.70 | Cc1ccc(C(=O)Nc2ccc(CN3CCN(C)CC3)c(C(F)(F)F)c2)cc1C#Cc1cnc2[nH]ncc2c1 [GZD-824] | 
 | COc1cc(C(=O)N2CCC(N3CCN(C)CC3)CC2)ccc1Nc1ncc2c(n1)N(C)c1ccccc1C(=O)N2C [LRRK2-IN1] | All inhibitors ablated LRRK2-mediated phosphorylation of Rab10 at Thr73 and LRRK2 at Ser935 in parallel experiments.
